Measurements published in patent publication US12465611B2, “Compositions and methods for treatment of depression and other disorders” (priority 2019, dated 2025).
Where “and” joins values, the source holds several entries; their conditions need not be identical. Equal entries are not always repeated. Where two headings read alike, the source gives them in different places.

Assays:
tyramine pressor effect [1] = details: cited from earlier work
[2] = oral tyramine with food; VanDenBerg et al., 2003; cited from earlier work
[3] = cited from earlier work
tyramine pressor effect [4] = details: cited from earlier work; remark: listed apart in the source
tyramine pressor effect [5] = details: with TCP; Pare et al., 1982; cited from earlier work
tyramine pressor effect [6] = details: for Average SBP increase: 40 mg of tyramine taken with a meal, TCP 20 mg, phenelzine 60 mg, brofaromine 100 mg, moclobemide 450 mg, selegiline 20 mg; for SBP increase with 40 mg of in-meal tyramine: atomoxetine 40 mg, nortriptyline 125 mg
Description: Thus, wherein the MAOI and the NRI are each administered with an NRI dosage sufficient to result in a blood pressure increase of less than about 20 mm HG in reaction to consuming about 40 mg or less, about 35 mg or less, about 30 mg or less, about 25 mg or less, about 20 mg or less, about 15 mg or less, about 10 mg or less, or about 5 mg or less of tyramine within the effective plasma concentration time period.
This study is designed to characterize the effects of PHZ on the responses to tyramine throughout the dosing interval when given alone, and with an inhibitor of NET to mitigate the potentiation of the tyramine pressor effect by PHZ.

[7] = Plasma concentration and pharmacokinetics of MAOIs and NRIs; details: for Average Concentration: TCP plasma
Description: As used herein, the phrase “controlled-release formulation time period” refers to the period of time during which an active agent in the formulation is released in a delayed but controlled fashion upon administration to a subject. An objective of controlled release is to avoid bioavailability peaks and valleys and achieve a prolonged time period where concentration of the formulation fluctuates in a narrow range. Another key objective is to lengthen the time period where the drug concentration remains above a target minimum concentration required for desired effectiveness.
As used herein, the term “half-life period” refers to the time period in which the initial concentration of a drug in the plasma is reduced by 50%.
As used herein, the term “effective plasma concentration time period” refers to a period of time during which an active agent is present in the plasma at an effective plasma concentration.

[8] = TCP postural hypotension: SBP drop from sitting to standing position; details: for Average Postural SBP Drop: sitting to standing
rat heart = details: given before TCP; Dostert et al., 1994; cited from earlier work

Structure (SMILES): NCCc1ccc(O)cc1 [tyramine]
- in-meal tyramine dose producing 30 mm SBP increase relative to fasting oral dose (tyramine pressor effect [1]; Gillman, 2011): 2 to 4 times
- reduction in AUC with food, average [2]: 53%
- reduction of Cmax with food, on average [2]: 72%

Structure (SMILES): CNCC[C@@H](Oc1ccccc1C)c1ccccc1 [atomoxetine]
- half-life ([3]; among extensive metabolizers): approximately 5 hours
- half-life ([3]; among slow metabolizers): over 10 hours

Structure (SMILES): CNCCC=C1c2ccccc2CCc2ccccc21 [nortriptyline]
- relationship between Tyramine-relative response and blood concentration (tyramine pressor effect [4]; FIG. 2): tyramine tolerance increases as the blood concentration of nortriptyline increases
- relation of tyramine sensitivity to plasma concentration (tyramine pressor effect [4]; depressed patients treated with amitriptyline, Ghose and Coppen, 1977): decrease in tyramine sensitivity correlated with plasma concentrations of nortriptyline
- Tyramine pressor effect (tyramine pressor effect [4]; in the presence of the NRI, Freyschuss et al., 1970): much more reduced

Structure (SMILES): CNCCCN1c2ccccc2CCc2ccccc21 [desipramine]
- reduction of sensitivity to TYR, average factor (increase of TYR dose which increases systolic blood pressure 30 mm Hg) (tyramine pressor effect [1]; 100 mg dose of desipramine, Chalon et al. 2003): 5 fold
- half-life ([3]; plasma, elimination): 12 to 30 h and 21 h

Structure (SMILES): CNCCCC1c2ccccc2C=Cc2ccccc21 [protriptyline]
- half-life ([3]; plasma, elimination): 60 to 90 h

Structure (SMILES): CN(C)CCC=C1c2ccccc2CCc2ccccc21 [amitriptyline]
- effect on sensitivity to intravenous tyramine (tyramine pressor effect [5]): reversed the increase in sensitivity to intravenous tyramine associated with administration of TCP

Structure (SMILES): N[C@@H]1C[C@H]1c1ccccc1 (racemic) [TCP, tranylcypromine]
- Average SBP increase (tyramine pressor effect [6]): 50.0 mm HG
- SBP increase with 40 mg of in-meal tyramine (tyramine pressor effect [6]; TCP without or with NRI: desipramine 100 mg): 50 mm HG
- time plasma concentration stays above minimum threshold of 25 ng/ml ([7]; 40 mg TCP dose, not extended release): 9 h
- average Cmax ([7]; TCP dose of 40 mg/d, immediate release formulation): approximately 230 ng/ml
- Average Concentration ([7]; 1 to 5 hours since dosing): 59.8 ng/mL
- Average Concentration ([7]; 7 to 10 hours since dosing): 17.5 ng/mL
- highest drop in postural systolic blood pressure ([8]; immediate release formulation): approximately 25 mm HG
- Average Postural SBP Drop ([8]; 1 to 5 hours since dosing): 9.6 mm HG
- Average Postural SBP Drop ([8]; 7 to 10 hours since dosing): 3.4 mm HG

Structure (SMILES): NNCCc1ccccc1 [Phenelzine, phenelzine]
- reduction of fasting tyramine dose giving 30 mm Hg SBP increase (tyramine pressor effect [1]; PHZ 60 mg, Bieck and Antonin, 1989): 13 fold
- fasting tyramine dose which results in a 30 mm Hg increase in systolic blood pressure (tyramine pressor effect [1]; PHZ 60 mg, without drug 437 mg, Bieck and Antonin, 1989): 33 mg
- half-life ([3]; plasma, elimination): approximately 11.6 hours
- SBP increase with 40 mg of in-meal tyramine (tyramine pressor effect [6]; PHZ without or with NRI: desipramine 100 mg): 12.1 mm HG

Structure (SMILES): CCOc1ccccc1OC(c1ccccc1)C1CNCCO1 (centres unmarked) [reboxetine]
- half-life ([3]; plasma, elimination): 13 h
- effect on labelled tyramine levels in rat heart (rat heart): block the increased levels of labelled tyramine which accumulate in rat heart when given before TCP

Structure (SMILES): C#CCN(C)[C@H](C)Cc1ccccc1 [Selegiline]
- half-life ([3]; plasma, elimination): approximately 10 hours
- Average SBP increase (tyramine pressor effect [6]): 4.2 mm HG
